Patent publication US11154565B2, “Process for preparing a stable emulsion comprising one or more avermectins” (GALDERMA HOLDING SA, priority 2015, dated 2021)

Assay: Chemical stability of ivermectin in the composition on storage
Format: physicochemical
Conditions: composition obtained according to the invention

Substance: ivermectin
- chemical stability of ivermectin (stored for 6 months at 40° C.): chemically stable
- chemical stability of ivermectin (stored for 12 months at room temperature): chemically stable
